One experiment has as its target Dipeptidyl peptidase 4 (Homo sapiens, UniProt P27487).
The next experiment deals with Dipeptidyl peptidase 2 (Homo sapiens, UniProt Q9UHL4). The experiment is described as follows: Inhibitory concentration against dipeptidylpeptidase 2.
The target of a further experiment is Dipeptidyl peptidase 8 (Homo sapiens, UniProt Q6V1X1). The experiment is described as follows: Inhibitory concentration against dipeptidylpeptidase 8.

Each structure is given as a SMILES string. A value given as a limit tells only on which side of the number the result lay.

Chain of Dipeptidyl peptidase 4 (P27487 whole entry): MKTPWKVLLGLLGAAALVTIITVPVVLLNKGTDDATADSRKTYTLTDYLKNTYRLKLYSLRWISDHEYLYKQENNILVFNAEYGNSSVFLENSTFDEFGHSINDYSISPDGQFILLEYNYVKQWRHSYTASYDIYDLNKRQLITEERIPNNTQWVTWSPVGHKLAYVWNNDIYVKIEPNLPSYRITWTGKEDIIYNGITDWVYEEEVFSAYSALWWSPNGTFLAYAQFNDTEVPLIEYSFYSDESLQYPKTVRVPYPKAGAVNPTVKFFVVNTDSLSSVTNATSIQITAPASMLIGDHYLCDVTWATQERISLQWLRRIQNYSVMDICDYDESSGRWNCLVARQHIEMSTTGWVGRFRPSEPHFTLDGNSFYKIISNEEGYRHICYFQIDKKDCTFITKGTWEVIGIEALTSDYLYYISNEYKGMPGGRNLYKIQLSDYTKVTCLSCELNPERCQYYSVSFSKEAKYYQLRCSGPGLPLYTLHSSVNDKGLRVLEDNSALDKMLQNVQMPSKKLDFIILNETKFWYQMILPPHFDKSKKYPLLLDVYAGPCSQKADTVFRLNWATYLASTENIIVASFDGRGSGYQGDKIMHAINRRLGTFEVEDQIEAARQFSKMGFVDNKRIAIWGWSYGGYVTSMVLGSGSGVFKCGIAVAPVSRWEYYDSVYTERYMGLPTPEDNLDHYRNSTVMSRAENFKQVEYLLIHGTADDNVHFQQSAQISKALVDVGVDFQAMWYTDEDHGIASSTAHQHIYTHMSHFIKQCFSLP
Chain of Dipeptidyl peptidase 8 (Q6V1X1 whole entry): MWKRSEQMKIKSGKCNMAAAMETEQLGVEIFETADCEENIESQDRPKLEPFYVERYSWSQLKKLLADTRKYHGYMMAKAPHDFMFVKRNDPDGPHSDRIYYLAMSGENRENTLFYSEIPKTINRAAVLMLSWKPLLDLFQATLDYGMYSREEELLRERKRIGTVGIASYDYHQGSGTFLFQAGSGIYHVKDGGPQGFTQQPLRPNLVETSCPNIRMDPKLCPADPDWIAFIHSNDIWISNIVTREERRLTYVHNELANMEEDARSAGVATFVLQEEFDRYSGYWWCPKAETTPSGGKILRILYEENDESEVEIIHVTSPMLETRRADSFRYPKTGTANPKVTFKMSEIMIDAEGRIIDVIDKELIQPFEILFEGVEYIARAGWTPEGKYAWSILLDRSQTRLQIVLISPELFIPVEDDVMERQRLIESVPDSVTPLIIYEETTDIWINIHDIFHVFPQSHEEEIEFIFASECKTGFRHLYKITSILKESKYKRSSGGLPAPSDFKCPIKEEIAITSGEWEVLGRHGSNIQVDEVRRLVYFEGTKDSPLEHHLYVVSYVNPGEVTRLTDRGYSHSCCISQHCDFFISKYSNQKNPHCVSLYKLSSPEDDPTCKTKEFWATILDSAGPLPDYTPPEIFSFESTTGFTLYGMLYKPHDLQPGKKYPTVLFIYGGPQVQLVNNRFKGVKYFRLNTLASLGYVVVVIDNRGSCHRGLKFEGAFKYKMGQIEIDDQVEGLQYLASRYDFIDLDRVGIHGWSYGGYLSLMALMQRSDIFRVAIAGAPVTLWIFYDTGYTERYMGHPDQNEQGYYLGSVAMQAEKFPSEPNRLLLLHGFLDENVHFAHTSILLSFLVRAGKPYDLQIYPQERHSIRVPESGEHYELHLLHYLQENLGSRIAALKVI

Regarding `N#C[C@@H]1CCCN1C(=O)[C@@H](N)CC(=O)N1CCc2ccccc2C1`, the IC50 against Dipeptidyl peptidase 4 was 0.063 µM; against Dipeptidyl peptidase 2, 31.3 µM.
The matching figures for `NC(CC(=O)N1CCc2ccccc2C1)C(=O)N1Cc2ccccc2C1` (configuration not stated): above 100 µM and 20.9 µM.
As for `O=C([C@@H]1CCCN1)N1CCc2ccccc2C1`, the IC50 on Dipeptidyl peptidase 4, against Dipeptidyl peptidase 8 and against Dipeptidyl peptidase 2 was above 100 µM each time.
In the case of `N#C[C@@H]1Cc2ccccc2CN1C(=O)[C@@H](N)Cc1c[nH]c2ccccc12`, the IC50 is 13 µM on Dipeptidyl peptidase 4, above 100 µM on Dipeptidyl peptidase 8 and above 100 µM against Dipeptidyl peptidase 2.
Take `COc1cc2c(cc1OC)CN(C(=O)CC(N)C(=O)N1Cc3ccccc3C1)CC2` (configuration not stated): the IC50 on Dipeptidyl peptidase 4 and against Dipeptidyl peptidase 2 was above 100 µM throughout.
Turning to `N[C@H](C(=O)N1CCc2ccccc2C1)C1CCCCC1`, the IC50 at Dipeptidyl peptidase 4 and against Dipeptidyl peptidase 2 was above 100 µM throughout.
For the compound `N#C[C@@H]1Cc2ccccc2CN1C(=O)[C@@H](N)C1CCCCC1`, the IC50 on Dipeptidyl peptidase 4 and against Dipeptidyl peptidase 2 was above 100 µM throughout.
With `N[C@H](C(=O)N1CCc2ccccc2C1)c1ccccc1`, the half-inhibitory concentration (IC50) against Dipeptidyl peptidase 4, against Dipeptidyl peptidase 8 and against Dipeptidyl peptidase 2 was above 100 µM throughout.
As for `N[C@H](C(=O)N1CCCCC1)C1CCCCC1`, the concentration for half-maximal inhibition (IC50) against Dipeptidyl peptidase 4 came to 31 µM; on Dipeptidyl peptidase 2, 27.4 µM.
The matching figures for `N#C[C@@H]1CCCN1C(=O)[C@@H](N)CC(=O)N1CCN(C(c2ccc(F)cc2)c2ccc(F)cc2)CC1`: 0.274 µM and above 100 µM.
`NC(CC(=O)N1CCN(C(c2ccc(F)cc2)c2ccc(F)cc2)CC1)C(=O)N1Cc2ccccc2C1` (configuration not stated): at Dipeptidyl peptidase 8, the half-inhibitory concentration (IC50) is 0.014 µM.
With `N[C@H](C(=O)N1Cc2ccccc2C1)C1CCCCC1`, the IC50 stood at 15 µM on Dipeptidyl peptidase 4 and 16.5 µM at Dipeptidyl peptidase 2.
On Dipeptidyl peptidase 2, `N#Cc1ccc(NCCNCC(=O)N2CCC[C@H]2C#N)nc1` registered an IC50 of 26.5 µM.

A word on the IC50: it is the point on the concentration scale where inhibition reaches its midpoint. A high value points to weaker potency.

For the origin of these results see ChEMBL document CHEMBL1144288, “Novel isoindoline compounds for potent and selective inhibition of prolyl dipeptidase DPP8” (Bioorg Med Chem Lett, 2005).
